Laboratory results: the supplement of paper PMC10307832

Experiments:
Experiment in all cases: relative viability (nuclei count vs DMSO), 5 days (fraction); higher = more cells survive
Bleomycin + Foretinib = compound: CC1=C(N=C(N=C1N)[C@H](CC(=O)N)NC[C@@H](C(=O)N)N)C(=O)N[C@@H]([C@H](C2=CN=CN2)OC3C(C(C(C(O3)CO)O)O)OC4C(C(C(C(O4)CO)O)OC(=O)N)O)C(=O)N[C@H](C)[C@H]([C@H](C)C(=O)N[C@@H]([C@@H](C)O)C(=O)NCCC5=NC(=CS5)C6=NC(=CS6)C(=O)NCCC[S+](C)C)O [Bleomycin] + COc1cc2c(Oc3ccc(NC(=O)C4(C(=O)Nc5ccc(F)cc5)CC4)cc3F)ccnc2cc1OCCCN1CCOCC1 [Foretinib] (partner 0.25 µM); conditions: main component drawn
Method in brief: (§1)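 Each reported value is a median over duplicate plates. It expresses relative viability: treated-well nuclei count divided by vehicle-well nuclei count. Lung cancer cell lines in 1536-well plates were dosed by pin tool a day after seeding, alone with one drug or with a fixed anchor-drug dose plus five library-drug doses (not always all listed) in √10 steps, and nuclei were counted after 5 days.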

Bleomycin + Lapatinib = compound: CC1=C(N=C(N=C1N)[C@H](CC(=O)N)NC[C@@H](C(=O)N)N)C(=O)N[C@@H]([C@H](C2=CN=CN2)OC3C(C(C(C(O3)CO)O)O)OC4C(C(C(C(O4)CO)O)OC(=O)N)O)C(=O)N[C@H](C)[C@H]([C@H](C)C(=O)N[C@@H]([C@@H](C)O)C(=O)NCCC5=NC(=CS5)C6=NC(=CS6)C(=O)NCCC[S+](C)C)O [Bleomycin] + CS(=O)(=O)CCNCc1ccc(-c2ccc3ncnc(Nc4ccc(OCc5cccc(F)c5)c(Cl)c4)c3c2)o1 [Lapatinib] (partner 2 µM); conditions: main component drawn
Method in brief: as §1

Etoposide + Dasatinib = compound: COc1cc([C@@H]2c3cc4c(cc3[C@@H](O[C@@H]3O[C@@H]5CO[C@@H](C)O[C@H]5[C@H](O)[C@H]3O)[C@H]3COC(=O)[C@H]23)OCO4)cc(OC)c1O [Etoposide] + Cc1nc(Nc2ncc(C(=O)Nc3c(C)cccc3Cl)s2)cc(N2CCN(CCO)CC2)n1 [Dasatinib] (partner 0.075 µM)
Method in brief: as §1

Etoposide + Olaparib = compound: COc1cc([C@@H]2c3cc4c(cc3[C@@H](O[C@@H]3O[C@@H]5CO[C@@H](C)O[C@H]5[C@H](O)[C@H]3O)[C@H]3COC(=O)[C@H]23)OCO4)cc(OC)c1O [Etoposide] + O=C(c1cc(Cc2n[nH]c(=O)c3ccccc23)ccc1F)N1CCN(C(=O)C2CC2)CC1 [Olaparib] (partner 8 µM)
Method in brief: as §1

Question: What does the source list for UMC-11?
Answer: relative viability (Bleomycin + Foretinib; first compound 0.01 µM): 0.93; relative viability (Bleomycin + Foretinib; first compound 0.03162 µM): 1.02; relative viability (Bleomycin + Foretinib; first compound 0.1 µM): 1.06; relative viability (Bleomycin + Foretinib; first compound 0.3162 µM): 0.742; relative viability (Bleomycin + Foretinib; first compound 1 µM): 0.574; relative viability (Bleomycin + Lapatinib; first compound 0.01 µM): 0.879; relative viability (Bleomycin + Lapatinib; first compound 0.03162 µM): 0.819; relative viability (Bleomycin + Lapatinib; first compound 0.1 µM): 0.971; relative viability (Bleomycin + Lapatinib; first compound 0.3162 µM): 0.737; relative viability (Bleomycin + Lapatinib; first compound 1 µM): 0.503; relative viability (Etoposide + Dasatinib; first compound 0.01 µM): 0.455; relative viability (Etoposide + Dasatinib; first compound 0.03162 µM): 0.38; relative viability (Etoposide + Dasatinib; first compound 0.1 µM): 0.316; relative viability (Etoposide + Dasatinib; first compound 0.3162 µM): 0.38; relative viability (Etoposide + Dasatinib; first compound 1 µM): 0.259; relative viability (Etoposide + Olaparib; first compound 0.01 µM): 0.326; relative viability (Etoposide + Olaparib; first compound 0.03162 µM): 0.331; relative viability (Etoposide + Olaparib; first compound 0.1 µM): 0.311; relative viability (Etoposide + Olaparib; first compound 0.3162 µM): 0.27; relative viability (Etoposide + Olaparib; first compound 1 µM): 0.28
